# Reference: US7968526B2, “Antisense oligonucleotides directed to ribonucleotide reductase R2 and uses thereof in the treatment of cancer” (Lorus Therapeutics Inc., priority 2003, dated 2011)
# Entries after “also recorded” stand apart in the source; their conditions may differ.
# What was measured:
# Assay type in all cases: in vivo, human cells in mice
# [1] = system: HT-29 human colon cancer cells; test: HT-29 colon tumour xenograft in nude mice, combination with CPT-11 (1.2); conditions: HT-29 (colon), CD-1; SEQ ID NO:1 10 mg/kg i.v. every other day; CPT-11 20 mg/kg i.p. days 7-12
# Source text: All treatments were stopped at day 22. […] All treatments were stopped at day 32. […] All treatments were stopped at day 36.
# [2] = system: LS513 multi-drug resistant colon carcinoma cells; test: LS513 multi-drug resistant colon carcinoma xenograft in SCID mice, combination with CPT-11 (2.8); conditions: LS513 (colon) multi-drug resistant (CPT-11 sensitive), SCID; SEQ ID NO:1 10 mg/kg i.v. every other day; CPT-11 20 mg/kg/day i.p. 5 days
# Experimental: BxPC-3 is a gemcitabine resistant call line. […] Gemcitabine was administered intravenously every three days at a dose of 100 mg/kg. Antitumour activities were estimated by the inhibition of tumour volume, which was measured with caliper. Each point represents mean tumour volume calculated from 10 animals per experimental group. […] Hela S3 is a hydroxyurea resistant cell line. […] Hydroxyurea was administered intraperitoneally every day at a dose of 250 mg/kg for 10 days. Cisplatin was administered intravenously once a week for three weeks at a dose of 4 mg/kg. Antitumour activities were estimated by the inhibition of tumour volume, which was measured with caliper. Each point represents mean tumour volume calculated from 10 animals per experimental group. […] Cisplatin was administered intravenously once a week for three weeks at a dose of 4 mg/kg. Taxol was administered intravenously once a week for three weeks at a dose of 10 mg/kg. Antitumour activities were estimated by the inhibition of tumour volume, which was measured with caliper. Each point represents mean tumour volume calculated from 10 animals per experimental group. […] Taxol was administered i.p. once a week at a dose of 10 mg/kg. Antitumour activities were estimated by the inhibition of tumour volume (FIG. 12A), which was measured with calipers. Each point represents mean tumour volume calculated from 10 animals per experimental group. […] Antitumour activities were estimated by the inhibition of tumour volume, which was measured with caliper. Each point represents mean tumour volume calculated from 9-10 animals per experimental group. […] Antitumour activities were estimated by the inhibition of tumour volume, which was measured with caliper. Each point represents mean tumour volume calculated from 10 animals per experimental group. […] Anti-tumour activity was estimated by the inhibition of tumour volume, which was measured with caliper. Each point represents mean tumour volume calculated from 10 animals per experimental group. […] Antitumour activities were estimated by the inhibition of tumour volume, which was measured with caliper. […]
# [3] = system: BxPC-3 human pancreatic carcinoma cells; test: BxPC-3 gemcitabine resistant pancreatic carcinoma xenograft in CD-1 nude mice; conditions: Gemcitabine 100 mg/kg i.v. every three days
# Experimental: BxPC-3 is a gemcitabine resistant call line. […] Gemcitabine was administered intravenously every three days at a dose of 100 mg/kg. Antitumour activities were estimated by the inhibition of tumour volume, which was measured with caliper. Each point represents mean tumour volume calculated from 10 animals per experimental group. […] Hela S3 is a hydroxyurea resistant cell line. […] Hydroxyurea was administered intraperitoneally every day at a dose of 250 mg/kg for 10 days. Cisplatin was administered intravenously once a week for three weeks at a dose of 4 mg/kg. Antitumour activities were estimated by the inhibition of tumour volume, which was measured with caliper. Each point represents mean tumour volume calculated from 10 animals per experimental group. […] Cisplatin was administered intravenously once a week for three weeks at a dose of 4 mg/kg. Taxol was administered intravenously once a week for three weeks at a dose of 10 mg/kg. Antitumour activities were estimated by the inhibition of tumour volume, which was measured with caliper. Each point represents mean tumour volume calculated from 10 animals per experimental group. […] Taxol was administered i.p. once a week at a dose of 10 mg/kg. Antitumour activities were estimated by the inhibition of tumour volume (FIG. 12A), which was measured with calipers. Each point represents mean tumour volume calculated from 10 animals per experimental group. Animals were sacrificed and tumour weights taken at the end of the study (FIG. 12C). […] Cisplatin was administered intravenously once a week for four weeks at a dose of 4 mg/kg. Taxol was administered intravenously once a week for four weeks at a dose of 20 mg/kg. Antitumour activities were estimated by the inhibition of tumour volume, which was measured with caliper. Each point represents mean tumour volume calculated from 9-10 animals per experimental group. […] Cisplatin was administered intravenously once a week for four weeks at a dose of 4 mg/kg. Antitumour activities were estimated by the inhibition of tumour volume, which was measured with caliper. Each point represents mean tumour volume calculated from 10 animals per experimental group. At the end of the study the animals were sacrificed and tumours weighed. […] Taxol was administered i.p. once a week at a dose of 10 mg/kg. Anti-tumour activity was estimated by the inhibition of tumour volume, which was measured with caliper. Each point represents mean tumour volume calculated from 10 animals per experimental group. […] Antitumour activities were estimated by the inhibition of tumour volume, which was measured with caliper. Each point represents mean tumour volume calculated from 10 animals per experimental group. Tumour weights were measured after animals were sacrificed at the end of the treatment. […]
# [4] = system: A498 human kidney cancer cells; test: A498 kidney tumour xenograft in SCID mice, controls and chemotherapeutics (Example 7); conditions: oligonucleotides 10 mg/kg/2 days i.v., 5-FU 13 mg/kg/day×5, vinblastine 1 mg/kg/week, gemcitabine 100 mg/kg/week
# Source text: CD-1 athymic female nude mice, BALB/c nu/nu nude mice, SCID, and SCID beige mice were purchased from Charles River Laboratories (Montreal, Canada) and experiments were typically initiated when the mice were 6-7 weeks old. […] Each experimental group typically contained 10 mice. After the size of tumour reached a mean tumour volume of 50-100 mm^3, treatment was initiated. […] Anti-tumour activity was estimated by the measurement of tumour volume with a calliper at two-three day intervals. Tumour volume was calculated by a formula L×W×H/2, where L indicates length, W indicates width and H indicates height. Within 24 hours after the last treatment, the animals were sacrificed and tumour and body weights were measured. Results of statistical analyses of the data are presented as P values in the figure legends.
# Three additional treatment groups received: 5-FU (13 mg/kg/day×5), vinblastine (1 mg/kg/week) and gemcitabine (100 mg/kg/week). […] Caliper measurements at 1-week intervals were used to calculate tumour volumes. Each point in FIG. 28C represents mean tumour volume calculated from 10 animals per experimental group (with the exception of SEQ ID NO: 1 which was 8 animals). […] After 54 days the mice were sacrificed and the A498 tumours weighed. Each bar represents the mean tumour weight and standard error calculated for each treatment group.
SMILES,Tumour weight as % of saline control [1] [%],Tumour weight as % of saline control [2] [%],"Tumour weight as % of saline control ([3]; BxPC-3 (pancreatic), Gemcitabine resistant, CD-1, SEQ ID NO:1 10 mg/kg i.v. every other day 17 times) [%]","Antitumour effect (tumour volume, FIG. 9) ([3]; BxPC-3 gemcitabine resistant, CD-1 nude mice, SEQ ID NO:1 10 mg/kg i.v. every other day)",Effect on tumour growth (volume and weight) [4]
"CCc1c2c(nc3ccc(OC(=O)N4CCC(N5CCCCC5)CC4)cc13)-c1cc3c(c(=O)n1C2)COC(=O)[C@]3(O)CC [CPT-11, irinotecan, reference compound]",36,47,–,–,–
"Nc1ccn([C@@H]2O[C@H](CO)[C@@H](O)C2(F)F)c(=O)n1 [Gemcitabine, reference compound]",–,–,83,ineffective against Gemcitabine-resistant tumour,"ineffective in stabilization of the tumours; also recorded: at best, a delay in the rate of tumour growth"
